Consider 34 compounds from the Kinase Knowledgebase extract (Sharma et al. 2016).

For the assay, the target named is CDK2 (human) (UniProt P24941). The assay is described as follows: Enzyme Assay.
Take `O=c1[nH][nH]c2cc(NC(CCNc3ccccn3)Cc3ccccc3)ccc12` (centres undefined): the Ki (usually a dissociation constant, usually derived from enzyme kinetics or from competition with a known ligand) was under 1 µM.

Take `O=c1[nH][nH]c2cc(Nc3nc(Nc4cc(C5CC5)[nH]n4)ccc3[N+](=O)[O-])ccc12`: the inhibition constant (Ki) was under 1 µM.

For `Cc1cc(Nc2cc(N3CCN(C)CC3)nc(Sc3ccc4c(=O)[nH][nH]c4c3)n2)n[nH]1`, the Ki is under 1 µM.

In turn, `O=c1[nH][nH]c2ccc(-c3cc(Nc4n[nH]c5cccnc45)c4ccccc4n3)cc12` had a Ki of under 1 µM.

On to `Cc1cc(Nc2ccnc(Sc3ccc4c(=O)[nH][nH]c4c3)c2)n[nH]1`, for which the Ki was under 1 µM.

Regarding `O=c1[nH][nH]c2cc(CSc3cc(Nc4n[nH]c5ccccc45)ccn3)ccc12`, the Ki was under 1 µM.

Compound `CCc1c(-c2nc(Nc3cc(C)[nH]n3)c3ccccc3n2)ccc2[nH][nH]c(=O)c12` showed an inhibitory constant (Ki) of under 1 µM.

Turning to `Nc1cncc(-c2nc(Nc3n[nH]c4ccccc34)nc(-c3cc4c(=O)[nH][nH]c4cc3C(F)(F)F)n2)c1`, the Ki was under 1 µM.

`O=c1[nH][nH]c2cc(SCCC(Nc3nccnn3)c3ccccc3)ccc12` (centres undefined) had a Ki of under 1 µM.

In turn, `O=c1[nH][nH]c2cc(CCCC(Nc3ccccn3)c3ccccc3)ccc12` (centres undefined) displayed a Ki of under 1 µM.

With `O=c1[nH][nH]c2cc(Sc3nc(Nc4cc(C5CC5)[nH]n4)c4cccc(F)c4n3)ccc12`, the Ki is under 1 µM.

`Cn1cnc(NC2CCC(Oc3ccc4c(=O)[nH][nH]c4c3)C2)c1` (centres undefined) yielded a Ki of under 1 µM.

Compound `Cc1cnc(NC2CCCC(Sc3ccc4c(=O)[nH][nH]c4c3)C2)s1` (centres undefined) came in with a Ki of under 1 µM.

Compound `O=c1[nH][nH]c2ccc(-c3nnc(C4CCNCC4)c(Nc4n[nH]c5ccccc45)n3)c(C(F)(F)F)c12` came in with a Ki of under 1 µM.

Turning to `O=c1[nH][nH]c2cc(COC3CCCC3Nc3cc(C4CC4)[nH]n3)ccc12` (centres undefined), the Ki was under 1 µM.

Compound `O=C(CC(=O)Oc1ccc2c(=O)[nH][nH]c2c1)Nc1nccnn1` had a Ki of under 1 µM.

`Cn1cnc(NC2CCCC(c3ccc4[nH][nH]c(=O)c4c3)C2)c1` (centres undefined) gave a Ki of under 1 µM.

In the case of `O=c1[nH][nH]c2cc(OCC3CCCC3Nc3nccnn3)ccc12` (centres undefined), the Ki is under 1 µM.

In the case of `COC(=O)c1cc(Nc2cc(C)[nH]n2)nc(Sc2ccc3c(=O)[nH][nH]c3c2)n1`, the Ki was under 1 µM.

In turn, `Cn1cnc(NCCCCc2ccc3c(=O)[nH][nH]c3c2)c1` gave a Ki of under 1 µM.

On to `O=c1[nH][nH]c2cc(Nc3nc(Nc4cc(C5CC5)[nH]n4)c4cc(N5CCOCC5)ccc4n3)ccc12`, for which the Ki was under 1 µM.

Compound `Cc1cnc(NC2COCC(Nc3ccc4c(=O)[nH][nH]c4c3)C2)s1` (centres undefined) displayed a Ki of under 1 µM.

Consider `COC[C@H]1CCN(C(=O)c2cc(Nc3nc(-c4ccc5[nH][nH]c(=O)c5c4)nc4ccccc34)n[nH]2)C1`, for which the Ki is under 1 µM.

In the case of `Cc1cnc(NC(=O)CC(=O)Cc2ccc3c(=O)[nH][nH]c3c2)s1`, the Ki was under 1 µM.

In the case of `O=c1[nH][nH]c2cc(Cl)c(-c3cc(Nc4cc(C5CC5)[nH]n4)c4ccccc4n3)cc12`, the Ki was under 1 µM.

`O=C(CC(=O)Nc1cc(C2CC2)[nH]n1)Nc1ccc2c(=O)[nH][nH]c2c1` registered a Ki of under 1 µM.

For `Cc1cc(Nc2cc(Sc3ccc4c(=O)[nH][nH]c4c3)nc3ccccc23)n[nH]1`, the Ki is under 1 µM.

The compound `CCc1cc(Nc2cc(C)[nH]n2)nc(-c2ccc3[nH][nH]c(=O)c3c2)n1` came in with a Ki of under 1 µM.

`O=c1[nH][nH]c2cc(NCCC(Nc3cc(C4CC4)[nH]n3)c3ccccc3)ccc12` (centres undefined): the inhibition constant Ki was under 1 µM.

Take `NCCOc1cc(Nc2n[nH]c3ccccc23)nc(-c2cc3c(=O)[nH][nH]c3cc2C(F)(F)F)c1`: the Ki is under 1 µM.

On to `Cc1cnc(NC2CCC(Sc3ccc4c(=O)[nH][nH]c4c3)C2)s1` (centres undefined), for which the Ki is under 1 µM.

As for `CC1CCN(c2nc(Nc3n[nH]c4ccccc34)nc(-c3cc4c(=O)[nH][nH]c4cc3C(F)(F)F)n2)C1` (centres undefined), the Ki is under 1 µM.

The compound `O=C(CCNc1ccccn1)Cc1ccc2c(=O)[nH][nH]c2c1` showed a Ki of under 1 µM.

`Cc1nc(-c2ccc3[nH][nH]c(=O)c3c2C(F)(F)F)nc(Nc2n[nH]c3ccccc23)c1C` gave a Ki of under 1 µM.
